Assay results reported in ChEMBL document CHEMBL1201862, “PubChem BioAssay data set” (2004).
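The compound was tested at five concentrations on cells cultured in 96-well plates, with a 48-hour exposure period. GI50 marks 50% less growth.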 Calls of active or inactive are those of the source. Cut-off read from the data, not from the text of the source: active = GI50 up to about 1.1 µM and inactive = higher.

Key:
Assay in all cases: DTP human tumour cell line panel, 48 h
[1] = test system: 786-0
[2] = test system: A498
[3] = test system: A549
[4] = test system: ACHN
[5] = test system: CAKI-1
[6] = test system: CCRF-CEM
[7] = test system: COLO 205
[8] = test system: DLD-1
[9] = test system: DMS-114
[10] = test system: DMS-273
[11] = test system: HCC 2998
[12] = test system: HCT-116
[13] = test system: HCT-15
[14] = test system: HL-60
[15] = test system: HOP-18
[16] = test system: HOP-62
[17] = test system: HOP-92
[18] = test system: HT-29
[19] = test system: IGROV-1
[20] = test system: K562
[21] = test system: KM12
[22] = test system: LOX IMVI
[23] = test system: LXFL 529
[24] = test system: M14
[25] = test system: M19-MEL
[26] = test system: MOLT-4
[27] = test system: Malme-3M
[28] = test system: NCI-H23
[29] = test system: NCI-H460
[30] = test system: NCI-H522
[31] = test system: OVCAR-3
[32] = test system: OVCAR-4
[33] = test system: OVCAR-5
[34] = test system: OVCAR-8
[35] = test system: RPMI-8226
[36] = test system: RXF 393
[37] = test system: SF-268
[38] = test system: SF-295
[39] = test system: SF-539
[40] = test system: SK-MEL-28
[41] = test system: SK-MEL-2
[42] = test system: SK-MEL-5
[43] = test system: SK-OV-3
[44] = test system: SN12C
[45] = test system: SNB-19
[46] = test system: SNB-75
[47] = test system: SR
[48] = test system: SW-620
[49] = test system: TK-10
[50] = test system: U-251
[51] = test system: UACC-62
[52] = test system: UO-31
[53] = test system: EKVX
[54] = test system: KM-20L2
[55] = test system: NCI-H226
[56] = test system: SNB-78
[57] = test system: UACC-257
[58] = test system: XF498

O=C1CC(=O)N(CCc2ccccc2)S(=O)(=O)N1CCc1ccccc1
GI50 [1]: 17.1 µM (inactive)
GI50 [2]: 16.6 µM (inactive)
GI50 [3]: 24.4 µM (inactive)
GI50 [4]: 35.9 µM (inactive)
GI50 [5]: 22.2 µM (inactive)
GI50 [6]: 17.2 µM (inactive)
GI50 [7]: 22.4 µM (inactive)
GI50 [8]: 43.5 µM (inactive)
GI50 [9]: 21.4 µM (inactive)
GI50 [10]: 22.5 µM (inactive)
GI50 [11]: 86.9 µM (inactive)
GI50 [12]: 28.7 µM (inactive)
GI50 [13]: 33.2 µM
GI50 [14]: 19.1 µM (inactive)
GI50 [15]: 65.2 µM (inactive)
GI50 [16]: 36.2 µM (inactive)
GI50 [17]: 16.6 µM (inactive)
GI50 [18]: 23 µM (inactive)
GI50 [19]: 20.1 µM (inactive)
GI50 [20]: 23.7 µM (inactive)
GI50 [21]: 16.2 µM (inactive)
GI50 [22]: 1.91 µM (inactive)
GI50 [23]: 19.8 µM (inactive)
GI50 [24]: 40.6 µM (inactive)
GI50 [25]: 32.4 µM (inactive)
GI50 [26]: 20.3 µM (inactive)
GI50 [27]: 26 µM (inactive)
GI50 [28]: 25 µM (inactive)
GI50 [29]: 27.7 µM (inactive)
GI50 [30]: 19.5 µM (inactive)
GI50 [31]: 16.9 µM (inactive)
GI50 [32]: 19.8 µM (inactive)
GI50 [33]: 22.7 µM (inactive)
GI50 [34]: > 10 µM (inactive)
GI50 [35]: 24.4 µM (inactive)
GI50 [36]: 34.1 µM (inactive)
GI50 [37]: 29.1 µM (inactive)
GI50 [38]: 16.9 µM (inactive)
GI50 [39]: 22.6 µM (inactive)
GI50 [40]: 28.1 µM (inactive)
GI50 [41]: 22.6 µM (inactive)
GI50 [42]: 18.7 µM (inactive)
GI50 [43]: 24.3 µM (inactive)
GI50 [44]: 33 µM (inactive)
GI50 [45]: 29.2 µM (inactive)
GI50 [46]: 23.1 µM (inactive)
GI50 [47]: 22.7 µM (inactive)
GI50 [48]: 31.8 µM (inactive)
GI50 [49]: 36.6 µM (inactive)
GI50 [50]: 16.9 µM (inactive)
GI50 [51]: 25.9 µM (inactive)
GI50 [52]: 21.8 µM (inactive)

Cc1nc2c(n1CC(C)C)C(=O)c1ccccc1C2=O
GI50 [1]: 55.1 µM (inactive)
GI50 [3]: 32.9 µM (inactive)
GI50 [4]: 32.1 µM (inactive)
GI50 [6]: 38.2 µM (inactive)
GI50 [7]: 36 µM (inactive)
GI50 [8]: 36.6 µM (inactive)
GI50 [10]: 26.8 µM (inactive)
GI50 [53]: 38 µM (inactive)
GI50 [11]: 71.4 µM (inactive)
GI50 [12]: 20.8 µM (inactive)
GI50 [13]: 37.5 µM
GI50 [14]: 23 µM (inactive)
GI50 [16]: 42.1 µM (inactive)
GI50 [17]: 10.4 µM (inactive)
GI50 [18]: 34 µM (inactive)
GI50 [19]: 32.6 µM (inactive)
GI50 [20]: 29.9 µM (inactive)
GI50 [54]: 35.6 µM (inactive)
GI50 [21]: 37.9 µM (inactive)
GI50 [22]: 29.3 µM (inactive)
GI50 [23]: 42.6 µM (inactive)
GI50 [24]: 61.7 µM (inactive)
GI50 [25]: 15.7 µM (inactive)
GI50 [26]: 38.6 µM (inactive)
GI50 [27]: 20.6 µM (inactive)
GI50 [55]: > 100 µM (inactive)
GI50 [28]: 18 µM (inactive)
GI50 [29]: 23.4 µM (inactive)
GI50 [30]: 26.5 µM (inactive)
GI50 [31]: 25.4 µM (inactive)
GI50 [32]: 43.4 µM (inactive)
GI50 [34]: 35.5 µM (inactive)
GI50 [36]: 35.2 µM (inactive)
GI50 [37]: 42.8 µM (inactive)
GI50 [38]: 39.2 µM (inactive)
GI50 [39]: 24.8 µM (inactive)
GI50 [40]: 67.9 µM (inactive)
GI50 [41]: 25.5 µM (inactive)
GI50 [42]: 18.8 µM (inactive)
GI50 [43]: 62.4 µM (inactive)
GI50 [44]: 37.1 µM (inactive)
GI50 [45]: 51.5 µM (inactive)
GI50 [46]: 42.8 µM (inactive)
GI50 [56]: 61.9 µM (inactive)
GI50 [47]: 41.6 µM (inactive)
GI50 [48]: 41.1 µM (inactive)
GI50 [49]: > 100 µM (inactive)
GI50 [50]: 38.6 µM (inactive)
GI50 [57]: 17.7 µM (inactive)
GI50 [51]: 20.7 µM (inactive)
GI50 [52]: 26.5 µM (inactive)
GI50 [58]: 33.3 µM (inactive)

COc1ccc(C2S/C(=C\c3cc(OC)c(OC)c(OC)c3)C(=O)N2NC(=O)Cc2ccccc2)cc1 (stereo not given)
GI50 [1]: > 100 µM (inactive)
GI50 [3]: > 100 µM (inactive)
GI50 [4]: > 100 µM (inactive)
GI50 [5]: > 100 µM (inactive)
GI50 [6]: > 100 µM (inactive)
GI50 [7]: > 100 µM (inactive)
GI50 [8]: 94.2 µM (inactive)
GI50 [9]: 72.9 µM (inactive)
GI50 [10]: > 100 µM (inactive)
GI50 [12]: 89.9 µM (inactive)
GI50 [13]: > 100 µM
GI50 [14]: > 100 µM (inactive)
GI50 [15]: > 100 µM (inactive)
GI50 [16]: > 100 µM (inactive)
GI50 [17]: > 100 µM (inactive)
GI50 [18]: > 100 µM (inactive)
GI50 [19]: > 100 µM (inactive)
GI50 [20]: > 100 µM (inactive)
GI50 [21]: > 100 µM (inactive)
GI50 [22]: > 100 µM (inactive)
GI50 [23]: 61.9 µM (inactive)
GI50 [24]: > 100 µM (inactive)
GI50 [25]: > 100 µM (inactive)
GI50 [26]: 44.3 µM (inactive)
GI50 [27]: > 100 µM (inactive)
GI50 [55]: > 100 µM (inactive)
GI50 [28]: > 100 µM (inactive)
GI50 [29]: > 100 µM (inactive)
GI50 [30]: > 100 µM (inactive)
GI50 [32]: > 100 µM (inactive)
GI50 [33]: > 100 µM (inactive)
GI50 [34]: > 100 µM (inactive)
GI50 [35]: > 100 µM (inactive)
GI50 [36]: > 100 µM (inactive)
GI50 [37]: > 100 µM (inactive)
GI50 [38]: > 100 µM (inactive)
GI50 [39]: > 100 µM (inactive)
GI50 [40]: > 100 µM (inactive)
GI50 [41]: > 100 µM (inactive)
GI50 [42]: 22.1 µM (inactive)
GI50 [43]: > 100 µM (inactive)
GI50 [44]: > 100 µM (inactive)
GI50 [46]: 67.9 µM (inactive)
GI50 [47]: > 100 µM (inactive)
GI50 [48]: > 100 µM (inactive)
GI50 [49]: > 100 µM (inactive)
GI50 [50]: > 100 µM (inactive)
GI50 [57]: 76.6 µM (inactive)
GI50 [51]: > 100 µM (inactive)
GI50 [52]: 48 µM (inactive)

Nc1ccn(CCOC(c2ccccc2)P(=O)(O)O)c(=O)n1 (stereo not given)
GI50 [1]: > 100 µM (inactive)
GI50 [2]: > 100 µM (inactive)
GI50 [3]: > 100 µM (inactive)
GI50 [4]: > 100 µM (inactive)
GI50 [5]: > 100 µM (inactive)
GI50 [6]: > 100 µM (inactive)
GI50 [7]: > 100 µM (inactive)
GI50 [8]: > 100 µM (inactive)
GI50 [9]: > 100 µM (inactive)
GI50 [10]: > 100 µM (inactive)
GI50 [53]: > 100 µM (inactive)
GI50 [11]: > 100 µM (inactive)
GI50 [12]: > 100 µM (inactive)
GI50 [13]: > 100 µM
GI50 [14]: > 100 µM (inactive)
GI50 [18]: > 100 µM (inactive)
GI50 [19]: > 100 µM (inactive)
GI50 [54]: > 100 µM (inactive)
GI50 [21]: > 100 µM (inactive)
GI50 [22]: > 100 µM (inactive)
GI50 [23]: > 100 µM (inactive)
GI50 [25]: > 100 µM (inactive)
GI50 [26]: > 100 µM (inactive)
GI50 [27]: > 100 µM (inactive)
GI50 [55]: > 100 µM (inactive)
GI50 [28]: > 100 µM (inactive)
GI50 [29]: > 100 µM (inactive)
GI50 [30]: > 100 µM (inactive)
GI50 [31]: > 100 µM (inactive)
GI50 [33]: > 100 µM (inactive)
GI50 [34]: > 100 µM (inactive)
GI50 [36]: > 100 µM (inactive)
GI50 [37]: > 100 µM (inactive)
GI50 [38]: > 100 µM (inactive)
GI50 [39]: > 100 µM (inactive)
GI50 [40]: > 100 µM (inactive)
GI50 [41]: > 100 µM (inactive)
GI50 [42]: > 100 µM (inactive)
GI50 [43]: > 100 µM (inactive)
GI50 [44]: > 100 µM (inactive)
GI50 [45]: > 100 µM (inactive)
GI50 [46]: 12.2 µM (inactive)
GI50 [56]: > 100 µM (inactive)
GI50 [47]: > 100 µM (inactive)
GI50 [48]: > 100 µM (inactive)
GI50 [49]: > 100 µM (inactive)
GI50 [50]: > 100 µM (inactive)
GI50 [57]: > 100 µM (inactive)
GI50 [51]: > 100 µM (inactive)
GI50 [52]: > 100 µM (inactive)
GI50 [58]: > 100 µM (inactive)
